Here are results for eleven substances from patent US8178506B2, “Oligomeric compounds and compositions for use in modulation of small non-coding RNAs” (Regulus Therapeutics Inc., priority 2003, dated 2012).

One data set concerns T47D cells. Description: Caspase-3 activity assay (apoptosis) in T47D cells. The note with it: for Fold Increase over UTC (caspase-3 activity, apoptosis): 200 nM oligomeric compound; for Fold Increase over UTC (caspase-3 activity, apoptosis) / Fold Increase over UTC (caspase activity): 48 hours; for Fold Increase over UTC (caspase activity): relative to untreated control.
The subject of data set [1] is BJ, B16-F10, T47D, T47Dp53 and HeLa cells. Description: Cell cycle assay (propidium iodide flow cytometry), cell line panel. The note with it: for G1 (percentage of cells in phase of the cell cycle) / G2/M (percentage of cells in phase of the cell cycle) / S (percentage of cells in phase of the cell cycle) / SubG1 (percentage of cells in phase of the cell cycle) / aneuploid (percentage of cells): 150 nM oligomeric compound, 4.5 μg/ml LIPOFECTIN, after 72 hours, propidium iodide flow cytometry. Format: cell-based. (In general: In flow cytometry, cells or beads pass a laser one at a time.)

In another data set the test system is adipocytes. In words: Triglyceride accumulation assay in adipocytes. Format: cell-based, human. Conditions: for TG (triglyceride accumulation): differentiating adipocytes transfected with oligomeric compound.
A further data set relates to aP2. Description: aP2 mRNA expression in adipocytes (real-time PCR). Format: cell-based, human. The note with it: differentiating adipocytes transfected with oligomeric compound. In general terms: Quantitative PCR measures a nucleic acid by following its amplification.
A further data set relates to HSL. In words: HSL mRNA expression in adipocytes (real-time PCR). Format: cell-based, human. Conditions: differentiating adipocytes transfected with oligomeric compound.
For another data set, the system named is Glut4. Description: Glut4 mRNA expression in adipocytes (real-time PCR). Format: cell-based, human. Conditions: differentiating adipocytes transfected with oligomeric compound.
The next data set deals with PPARγ. In words: PPARγ mRNA expression in adipocytes (real-time PCR). Format: cell-based, human. The note with it: differentiating adipocytes transfected with oligomeric compound.
The next data set concerns HeLa cells. Description: Cell cycle assay in HeLa cells. Format: cell-based, human. Conditions: HeLa cells; for % cells aneuploid / % cells in cell cycle phase G1 / % cells in cell cycle phase G2/M / % cells in cell cycle phase S / % cells in cell cycle phase subG1: 24 hours, relative to untreated control (UTC = 100).
Setting [2] is: T47D cells, experiment of Table 12.
Setting [3] is: T47D cells, experiment of Table 10.
[4] abbreviates: 25 nM, 48 hours, percentage of cells in phase, average of replicates.
Setting [5] is: 50 nM, 48 hours, percentage of cells in phase, average of replicates.
Where [6] appears, read: 100 nM, 48 hours, percentage of cells in phase, average of replicates.
[7] abbreviates: 150 nM oligomeric compound, 48 hours after treatment, relative to untreated control (UTC=100).
The mark [8] stands for this setting: 150 nM, 48 hours, percentage of cells in phase, average of replicates.

Several values for one entry are separate records, joined by “and”; a condition that tells them apart may be missing. Identical values can stand only once. In the oligonucleotide strings, read from the 5' end, every base follows the letter of its sugar. An asterisk marks phosphorothioate; unmarked linkages are phosphodiester. Other units and linkages are bracketed, terminal groups are in braces. A string of capitals states the bases alone. e = 2'-O-(2-methoxyethyl) (MOE); [5mC] = 5-methylcytosine; d = 2'-deoxy (DNA)

For “328394 (eG*eT*eT*eT*eT*dT*dT*d[5mC]*dA*dA*dA*dT*d[5mC]*d[5mC]*d[5mC]*eA*eA*eA*e[5mC]*eT) [compound 328394]”, the “Fold Increase over UTC (caspase-3 activity, apoptosis)” value with T47D cells (setting [2]) came to 0.8 fold. Moreover, in data set [1], the “G1 (percentage of cells in phase of the cell cycle)” value was determined as 59.5%, the “G2/M (percentage of cells in phase of the cell cycle)” value is recorded as 16%, the “S (percentage of cells in phase of the cell cycle)” value is listed as 24.5% and the “SubG1 (percentage of cells in phase of the cell cycle)” value is reported as 2.4%. Besides, in data set [1], the “aneuploid (percentage of cells)” value is given as 18.3%.

For “ISIS 328396: oligomeric compound targeting mir-205 (e[5mC]*eT*eG*eG*eT*dT*dG*dG*dG*dT*dA*dT*dG*dA*dG*eA*e[5mC]*eA*eG*eA)”, in the data set with T47D cells (caspase assay, 200 nM, conclusion from Tables 9-12), the “apoptosis in T47D cells” value is on record as “prevent or have a protective effect from apoptosis”. Also, the “percentage of aneuploid cells” value in data set [1] (150 nM, 72 hours (Table 29)) was “higher than average percentages of aneuploid cells”.

For the substance “GCTGACCTTTTTGCTTCTCA (sugars from the 5' end e5 d10 e5, all phosphorothioate, methylation of C not given here) [ISIS 138648]”, in the data set with adipocytes (preadipocytes, 250 nM, day nine), the triglyceride accumulation entry is “decreased triglyceride production”. For the same substance, the “increase in caspase activity” value in the data set on T47D cells (T47D cells) is given as 41%.

“328697 (eG*e[5mC]*eT*eT*eG*dT*d[5mC]*d[5mC]*dA*d[5mC]*dA*d[5mC]*dA*dG*dT*eT*e[5mC]*eA*eA*e[5mC]; antisense) [compound 328697]”: in the data set with T47D cells (setting [2]), the “Fold Increase over UTC (caspase-3 activity, apoptosis)” value was found to be 1.0 fold. For the same substance, in data set [1], the “G1 (percentage of cells in phase of the cell cycle)” value came to 57.6%, the “G2/M (percentage of cells in phase of the cell cycle)” value was found to be 16%, the “S (percentage of cells in phase of the cell cycle)” value was 26.4% and the “SubG1 (percentage of cells in phase of the cell cycle)” value is given as 2.4%. Also, in data set [1], the “aneuploid (percentage of cells)” value is listed as 13.5%.

Consider “328434 (antisense e[5mC]*eG*e[5mC]*eA*eT*d[5mC]*dT*dT*dG*dA*d[5mC]*dT*dG*dT*dA*eG*e[5mC]*eA*eT*eG) [compound 328434]”, for which the “AP2 mRNA” value with aP2 is reported as 85 percentage of untreated control (UTC). Also, the “TG (triglyceride accumulation)” value in the data set with adipocytes was 91 percentage of untreated control (UTC). The “HSL mRNA” value with HSL is listed as 96 percentage of untreated control (UTC). In addition, the “Fold Increase over UTC (caspase-3 activity, apoptosis)” value with T47D cells (setting [2]) is 0.8 fold. In addition, the “GLUT4 mRNA” value in the data set on Glut4 is reported as 83 percentage of untreated control (UTC). The “PPAR gamma mRNA” value with PPARγ is 79 percentage of untreated control (UTC).

For the substance “328400 (antisense eA*eG*eT*eT*e[5mC]*dA*dA*dA*dA*d[5mC]*dT*d[5mC]*dA*dA*dT*e[5mC]*e[5mC]*e[5mC]*eA*eA) [compound 328400]”, the “AP2 mRNA” value with aP2 is listed as 34 percentage of untreated control (UTC). For the same substance, the “TG (triglyceride accumulation)” value in the data set with adipocytes is recorded as 60 percentage of untreated control (UTC). The “HSL mRNA” value in the data set on HSL was 40 percentage of untreated control (UTC). Besides, the “Fold Increase over UTC (caspase activity)” value in the data set with T47D cells (T47D cells, 200 nM) is listed as 1.3. Besides, the “GLUT4 mRNA” value with Glut4 is 18 percentage of untreated control (UTC). The “PPAR gamma mRNA” value in the data set on PPARγ is 67 percentage of untreated control (UTC).

Take “328436 (antisense eG*eA*eA*eA*eA*dT*dT*dA*dT*dA*dT*dT*dG*dA*d[5mC]*eT*e[5mC]*eT*eG*eA) [compound 328436]”: the “Fold Increase over UTC (caspase-3 activity, apoptosis)” value in the data set with T47D cells (setting [3]) turned out to be 0.9 fold. Besides, in data set [1], the “G1 (percentage of cells in phase of the cell cycle)” value came to 59.2%, the “G2/M (percentage of cells in phase of the cell cycle)” value was determined as 13.9%, the “S (percentage of cells in phase of the cell cycle)” value is 26.9% and the “SubG1 (percentage of cells in phase of the cell cycle)” value is listed as 3.5%. The “aneuploid (percentage of cells)” value in data set [1] was found to be 17.4%.

For the substance “328651 (eG*eG*eT*eA*eA*dG*dA*dG*dG*dA*dT*dG*d[5mC]*dG*d[5mC]*eT*eG*e[5mC]*eT*e[5mC]; antisense) [compound 328651]”, in the data set on aP2, the “AP2 mRNA” value is recorded as 84 percentage of untreated control (UTC). Also, in the data set with adipocytes, the “TG (triglyceride accumulation)” value is on record as 93 percentage of untreated control (UTC). Besides, the “HSL mRNA” value with HSL is given as 109 percentage of untreated control (UTC). For the same substance, the “Fold Increase over UTC (caspase-3 activity, apoptosis)” value with T47D cells (setting [3]) is reported as 0.9 fold. The “GLUT4 mRNA” value in the data set with Glut4 is on record as 78 percentage of untreated control (UTC). Besides, the “PPAR gamma mRNA” value with PPARγ is reported as 106 percentage of untreated control (UTC).

In the case of “328383 (eA*eG*eA*eG*eG*dG*dG*dA*dG*dA*d[5mC]*dG*dA*dG*dA*eG*e[5mC]*eA*e[5mC]*eT) [compound 328383]”, the “% cells in cell cycle phase: G2/M” value in the data set with HeLa cells (25 nM, 48 hours) turned out to be 18%. In the data set with HeLa cells (setting [4]), the “% cells in cell cycle phase: G1” value worked out at 57%, the “% cells in cell cycle phase: S” value was found to be 25%, the “% cells in cell cycle phase: aneuploid” value amounted to 12% and the “% cells in cell cycle phase: subG1” value stood at 1.9%. In the data set on HeLa cells (50 nM, 48 hours), the “% cells in cell cycle phase: G2/M” value is 18%. In addition, in the data set with HeLa cells (setting [5]), the “% cells in cell cycle phase: G1” value turned out to be 56%, the “% cells in cell cycle phase: S” value is 25%, the “% cells in cell cycle phase: aneuploid” value is given as 13% and the “% cells in cell cycle phase: subG1” value came out at 1.3%. In addition, the “% cells in cell cycle phase: G2/M” value in the data set with HeLa cells (100 nM, 48 hours) came to 30%. For the same substance, in the data set with HeLa cells (setting [6]), the “% cells in cell cycle phase: G1” value is on record as 36%, the “% cells in cell cycle phase: S” value is recorded as 34%, the “% cells in cell cycle phase: aneuploid” value is reported as 10% and the “% cells in cell cycle phase: subG1” value was 9.3%. Moreover, in the data set with HeLa cells (150 nM oligomeric compound), the “% cells aneuploid” value was 92% and 98%; the “% cells in cell cycle phase G1” value was 55% and 63%; the “% cells in cell cycle phase G2/M” value is 222% and 183%; the “% cells in cell cycle phase S” value was 82% and 97%. Further, the “% cells in cell cycle phase subG1” value in the data set on HeLa cells (150 nM oligomeric compound) was 314% and 289%. Also, in the data set with HeLa cells (setting [7]), the “% cells in cell cycle phase: G1” value was 53% and 54%; the “% cells in cell cycle phase: G2/M” value is 124% and 150%; the “% cells in cell cycle phase: S” value was 217% and 178%; the “% cells in cell cycle phase: aneuploid” value came out at 90%. In the data set with HeLa cells (150 nM, 48 hours), the “% cells in cell cycle phase: G2/M” value is given as 34%. Moreover, in the data set on HeLa cells (setting [8]), the “% cells in cell cycle phase: G1” value turned out to be 29%, the “% cells in cell cycle phase: S” value amounted to 36%, the “% cells in cell cycle phase: aneuploid” value was determined as 11% and the “% cells in cell cycle phase: subG1” value is recorded as 11.8%. The “Fold Increase over UTC (caspase-3 activity, apoptosis)” value with T47D cells (setting [3]) is reported as 1.2 fold.

Take “328647 (eG*eG*eA*eG*eT*dA*dG*dA*dT*dG*dA*dT*dG*dG*dT*eT*eA*eG*e[5mC]*e[5mC]; antisense) [compound 328647]”: in the data set on HeLa cells (150 nM oligomeric compound), the “% cells aneuploid” value came to 140%, the “% cells in cell cycle phase G1” value was 101%, the “% cells in cell cycle phase G2/M” value was found to be 119% and the “% cells in cell cycle phase S” value was found to be 92%. For the same substance, in the data set on HeLa cells (150 nM oligomeric compound), the “% cells in cell cycle phase subG1” value worked out at 140%. In the data set with HeLa cells (setting [7]), the “% cells in cell cycle phase: G1” value amounted to 69%, the “% cells in cell cycle phase: G2/M” value came to 118%, the “% cells in cell cycle phase: S” value was 153% and the “% cells in cell cycle phase: aneuploid” value came out at 136%. Besides, the “% cells in cell cycle phase: subG1” value with HeLa cells (setting [7]) is listed as 589%. In addition, the “Fold Increase over UTC (caspase activity)” value in the data set with T47D cells (T47D cells, 200 nM) is recorded as 0.9.

Regarding “328417 (antisense eT*eA*eA*eT*eT*dT*dT*dA*dG*dA*dA*dT*d[5mC]*dT*dT*eA*eA*e[5mC]*eG*e[5mC]) [compound 328417]”, the “AP2 mRNA” value in the data set with aP2 is listed as 87 percentage of untreated control (UTC). For the same substance, the “TG (triglyceride accumulation)” value with adipocytes is 83 percentage of untreated control (UTC). The “HSL mRNA” value in the data set with HSL is on record as 98 percentage of untreated control (UTC). Further, the “Fold Increase over UTC (caspase activity)” value in the data set on T47D cells (T47D cells, 200 nM) is given as 1.0. Moreover, the “GLUT4 mRNA” value in the data set on Glut4 was 68 percentage of untreated control (UTC). The “PPAR gamma mRNA” value in the data set with PPARγ was 94 percentage of untreated control (UTC).
